Measurements published in the supplement of paper PMC10307832.

Key:
Experiment in all cases: relative viability (nuclei count vs DMSO), 5 days (fraction); higher = more cells survive
XMD13-2 + Bortezomib = compound: C1CC1C(=O)NC2=NNC3=C2C=CC(=C3)C4=CC(=CC=C4)C(=O)NC5CC5 [XMD13-2] + CC(C)C[C@H](NC(=O)[C@H](Cc1ccccc1)NC(=O)c1cnccn1)B(O)O [Bortezomib] (partner 0.002 µM)
Method in brief: (§1)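 Lung cancer cell lines in 1536-well plates were dosed by pin tool the day after seeding, either with one drug alone or with a fixed anchor-drug dose plus five library-drug doses (not always all listed) in √10 steps. After 5 days, cells were fixed and their nuclei stained in one step (final 0.05% Triton X-100, 1% formaldehyde, 1 ug/ml Hoechst), then counted on 4× images. Relative viability is the nuclei count in treated wells divided by that in vehicle wells. Values are medians of duplicate plates.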

XMD13-2 + Pemetrexed = compound: C1CC1C(=O)NC2=NNC3=C2C=CC(=C3)C4=CC(=CC=C4)C(=O)NC5CC5 [XMD13-2] + Nc1nc2[nH]cc(CCc3ccc(C(=O)N[C@@H](CCC(=O)O)C(=O)O)cc3)c2c(=O)[nH]1 [Pemetrexed] (partner 0.2 µM)
Method in brief: as §1

ALW-II-49-7 + Alpelisib = compound: Cc1ccc(C(=O)Nc2cccc(C(F)(F)F)c2)cc1Nc1cncc(C(N)=O)c1 [ALW-II-49-7] + Cc1nc(NC(=O)N2CCC[C@H]2C(N)=O)sc1-c1ccnc(C(C)(C)C(F)(F)F)c1 [Alpelisib] (partner 2 µM)
Method in brief: as §1

Dasatinib + Luminespib = compound: Cc1nc(Nc2ncc(C(=O)Nc3c(C)cccc3Cl)s2)cc(N2CCN(CCO)CC2)n1 [Dasatinib] + CCNC(=O)c1noc(-c2cc(C(C)C)c(O)cc2O)c1-c1ccc(CN2CCOCC2)cc1 [Luminespib] (partner 0.01 µM)
Method in brief: as §1

## HOP-62
XMD13-2 + Bortezomib; first compound 0.05 µM
  relative viability: 1.03
XMD13-2 + Bortezomib; first compound 0.1581 µM
  relative viability: 0.726
XMD13-2 + Bortezomib; first compound 0.5 µM
  relative viability: 0.842
XMD13-2 + Bortezomib; first compound 1.581 µM
  relative viability: 1.23
XMD13-2 + Bortezomib; first compound 5 µM
  relative viability: 0.756
XMD13-2 + Pemetrexed; first compound 0.05 µM
  relative viability: 0.264
XMD13-2 + Pemetrexed; first compound 0.1581 µM
  relative viability: 0.339
XMD13-2 + Pemetrexed; first compound 0.5 µM
  relative viability: 0.299
XMD13-2 + Pemetrexed; first compound 1.581 µM
  relative viability: 0.285
XMD13-2 + Pemetrexed; first compound 5 µM
  relative viability: 0.278
ALW-II-49-7 + Alpelisib; first compound 0.08 µM
  relative viability: 1.05
ALW-II-49-7 + Alpelisib; first compound 0.253 µM
  relative viability: 1.13
ALW-II-49-7 + Alpelisib; first compound 0.8 µM
  relative viability: 1.14
ALW-II-49-7 + Alpelisib; first compound 2.53 µM
  relative viability: 0.499
ALW-II-49-7 + Alpelisib; first compound 8 µM
  relative viability: 0.955
Dasatinib + Luminespib; first compound 0.005 µM
  relative viability: 0.853
Dasatinib + Luminespib; first compound 0.01581 µM
  relative viability: 0.858
Dasatinib + Luminespib; first compound 0.05 µM
  relative viability: 0.92
Dasatinib + Luminespib; first compound 0.1581 µM
  relative viability: 0.648
Dasatinib + Luminespib; first compound 0.5 µM
  relative viability: 0.485

## CAL-12T
XMD13-2 + Bortezomib; first compound 0.05 µM
  relative viability: 1.2
XMD13-2 + Bortezomib; first compound 0.5 µM
  relative viability: 1.01
XMD13-2 + Bortezomib; first compound 1.581 µM
  relative viability: 0.837
XMD13-2 + Bortezomib; first compound 5 µM
  relative viability: 1.16
XMD13-2 + Pemetrexed; first compound 0.05 µM
  relative viability: 1.27
XMD13-2 + Pemetrexed; first compound 0.1581 µM
  relative viability: 1.1
XMD13-2 + Pemetrexed; first compound 0.5 µM
  relative viability: 1.25
XMD13-2 + Pemetrexed; first compound 1.581 µM
  relative viability: 1.11
XMD13-2 + Pemetrexed; first compound 5 µM
  relative viability: 1.23
ALW-II-49-7 + Alpelisib; first compound 0.08 µM
  relative viability: 1.26
ALW-II-49-7 + Alpelisib; first compound 0.253 µM
  relative viability: 1.14
ALW-II-49-7 + Alpelisib; first compound 0.8 µM
  relative viability: 1.2
ALW-II-49-7 + Alpelisib; first compound 2.53 µM
  relative viability: 1.21
ALW-II-49-7 + Alpelisib; first compound 8 µM
  relative viability: 1.26
Dasatinib + Luminespib; first compound 0.005 µM
  relative viability: 0.794
Dasatinib + Luminespib; first compound 0.01581 µM
  relative viability: 0.374
Dasatinib + Luminespib; first compound 0.05 µM
  relative viability: 0.334
Dasatinib + Luminespib; first compound 0.1581 µM
  relative viability: 0.129
Dasatinib + Luminespib; first compound 0.5 µM
  relative viability: 0.072

## LCLC-103H
XMD13-2 + Bortezomib; first compound 0.05 µM
  relative viability: 1.03
XMD13-2 + Bortezomib; first compound 0.1581 µM
  relative viability: 1.1
XMD13-2 + Bortezomib; first compound 0.5 µM
  relative viability: 1.08
XMD13-2 + Bortezomib; first compound 1.581 µM
  relative viability: 1.02
XMD13-2 + Bortezomib; first compound 5 µM
  relative viability: 1.21
XMD13-2 + Pemetrexed; first compound 0.05 µM
  relative viability: 0.421
XMD13-2 + Pemetrexed; first compound 0.1581 µM
  relative viability: 0.473
XMD13-2 + Pemetrexed; first compound 0.5 µM
  relative viability: 0.471
XMD13-2 + Pemetrexed; first compound 1.581 µM
  relative viability: 0.483
XMD13-2 + Pemetrexed; first compound 5 µM
  relative viability: 0.461
ALW-II-49-7 + Alpelisib; first compound 0.08 µM
  relative viability: 0.933
ALW-II-49-7 + Alpelisib; first compound 0.253 µM
  relative viability: 0.968
ALW-II-49-7 + Alpelisib; first compound 0.8 µM
  relative viability: 0.993
ALW-II-49-7 + Alpelisib; first compound 2.53 µM
  relative viability: 1.14
ALW-II-49-7 + Alpelisib; first compound 8 µM
  relative viability: 0.972
Dasatinib + Luminespib; first compound 0.005 µM
  relative viability: 0.83
Dasatinib + Luminespib; first compound 0.01581 µM
  relative viability: 0.88
Dasatinib + Luminespib; first compound 0.05 µM
  relative viability: 0.733
Dasatinib + Luminespib; first compound 0.1581 µM
  relative viability: 0.52
Dasatinib + Luminespib; first compound 0.5 µM
  relative viability: 0.275

## NCI-H3122
XMD13-2 + Bortezomib; first compound 0.05 µM
  relative viability: 1.06
XMD13-2 + Bortezomib; first compound 0.1581 µM
  relative viability: 1.05
XMD13-2 + Bortezomib; first compound 0.5 µM
  relative viability: 1.02
XMD13-2 + Bortezomib; first compound 1.581 µM
  relative viability: 1.1
XMD13-2 + Bortezomib; first compound 5 µM
  relative viability: 0.985
XMD13-2 + Pemetrexed; first compound 0.05 µM
  relative viability: 0.193
XMD13-2 + Pemetrexed; first compound 0.1581 µM
  relative viability: 0.195
XMD13-2 + Pemetrexed; first compound 0.5 µM
  relative viability: 0.199
XMD13-2 + Pemetrexed; first compound 1.581 µM
  relative viability: 0.199
XMD13-2 + Pemetrexed; first compound 5 µM
  relative viability: 0.195
ALW-II-49-7 + Alpelisib; first compound 0.08 µM
  relative viability: 0.824
ALW-II-49-7 + Alpelisib; first compound 0.253 µM
  relative viability: 0.651
ALW-II-49-7 + Alpelisib; first compound 0.8 µM
  relative viability: 0.865
ALW-II-49-7 + Alpelisib; first compound 2.53 µM
  relative viability: 0.873
ALW-II-49-7 + Alpelisib; first compound 8 µM
  relative viability: 0.981
Dasatinib + Luminespib; first compound 0.005 µM
  relative viability: 0.0996
Dasatinib + Luminespib; first compound 0.01581 µM
  relative viability: 0.0732
Dasatinib + Luminespib; first compound 0.05 µM
  relative viability: 0.124
Dasatinib + Luminespib; first compound 0.1581 µM
  relative viability: 0.0691
Dasatinib + Luminespib; first compound 0.5 µM
  relative viability: 0.0615
